Measurements published in patent publication US20060171988A1, “Method of treatment using foams as artificial lymph nodes” (priority 2005, published 2006).
“Also recorded” adds a separate entry of the source.

What was measured:
EL-4 cells = assay: 51Cr release assay (CTL activity) with T cells from immunized mice, EL-4 targets; type: in vivo, mouse
Description: Immunization: On day 9 after surgery, wounds had generally healed and healthy mice were used for immunization with 30 μg peptide per mouse. Depending on the experiment, CpG deoxyoligonucleotide 1668 (5 -100 pmole/mouse), mouse GM-CSF (10^3 units/mouse) and Titermax classic were used as adjuvants. Generally, injection volume was adjusted to 200 μl per mouse with sterile PBS. When applying Titermax classic, all other injection components were mixed and then added in small portions to an equal volume of Titermax classic. After each addition, the vial was rigorously mixed to obtain a white, semi-fluid water-in-oil suspension. […]
T-cell culture and ^51Cr release assay: On day 9 after immunization, mice were sacrificed and 2*10^7 splenocytes were stimulated in vitro for 5 days using 10^7 irradiated (30 Gy) splenocytes from untreated C57BL/6 mice as feeder cells and 5 ng/ml peptide. Cytotoxic T lymphocyte (CTL) activity was measured in a standard ^51Cr release assay (Brunner et al., 1968). Briefly, stimulated cells were harvested, counted and plated out in a series of […] in a round-bottom 96-well plate. […] After intense washing with cell culture medium, 10^4 of these cells were added to each well of the 96-well plate as targets. ^51Cr release was measured after 4 h incubation at 37° C./5% (v/v) CO2.

[1] = tested on: ovalbumin-transfected E.G7 mouse tumor cells; assay: 51Cr release assay (CTL activity) with T cells from immunized mice, E.G7 targets; type: in vivo
Description: Immunization: On day 9 after surgery, wounds had generally healed and healthy mice were used for immunization with 30 μg peptide per mouse. Depending on the experiment, CpG deoxyoligonucleotide 1668 (5 -100 pmole/mouse), mouse GM-CSF (10^3 units/mouse) and Titermax classic were used as adjuvants. Generally, injection volume was adjusted to 200 μl per mouse with sterile PBS. When applying Titermax classic, all other injection components were mixed and then added in small portions to an equal volume of Titermax classic. After each addition, the vial was rigorously mixed to obtain a white, semi-fluid water-in-oil suspension. Injection was either performed subcutaneously into the nape of the neck, the base of tail and the footpad, using a volume ratio of 3:1:1, respectively, or directly into the centre of the right foam implantate.
T-cell culture and ^51Cr release assay: On day 9 after immunization, mice were sacrificed and 2*10^7 splenocytes were stimulated in vitro for 5 days using 10^7 irradiated (30 Gy) splenocytes from untreated C57BL/6 mice as feeder cells and 5 ng/ml peptide. Cytotoxic T lymphocyte (CTL) activity was measured in a standard ^51Cr release assay (Brunner et al., 1968). Briefly, stimulated cells were harvested, counted and plated out in a series of […] in a round-bottom 96-well plate. 10^6 EL-4 cells (C57BL/6-derived T cell lymphoma; ATCC no. TIB-39) were loaded with 50 pmole peptide and [^51Cr] Na2CrO4-labeled at 37° C. for 30 min. After intense washing with cell culture medium, 10^4 of these cells were added to each well of the 96-well plate as targets. ^51Cr release was measured after 4 h incubation at 37° C./5% (v/v) CO2.

[2] = s.c. injection into the nape of the neck, peptide alone, T cells from spleen or lymph nodes of immunized C57BL/6 mice

| Sequence | maximum lysis above unspecific background (EL-4 cells; peptide injected into s.c. implanted PVA foams, T cells from axillary and cervical lymph nodes, independent second experiment) | recognition of untransfected EL-4 target cells by T cells (EL-4 cells; [2]) | maximum lysis above unspecific background ([1]; peptide injected into s.c. implanted PVA foams, T cells from spleen) | lysis of ovalbumin-transfected E.G7 cells by T cells ([1]; peptide injected into s.c. implanted PVA foams, T cells from spleen or lymph node) | immune response / recognition of E.G7 target cells by T cells [1, 2] |
| --- | --- | --- | --- | --- | --- |
| ASNENMETM (peptide ASNENMETM derived from influenza nucleoprotein (amino acid 366-374)) [peptide derived from influenza nucleoprotein (amino acid 366-374)] | 37% |  |  |  |  |
| SIINFEKL (Ovalbumin-derived SIINFEKL peptide (amino acid 257-264)) [peptide derived from chicken ovalbumin (amino acid 257-264), model ligand of mouse MHC class I allele H2-Kb] |  | nor untransfected H2-b positive EL-4 mouse tumor cells were recognized | approximately 45% | able to lyse | Neither ovalbumin-transfected E.G7 mouse tumor cells of the H2-b haplotype, nor untransfected H2-b positive EL-4 mouse tumor cells are recognized; also recorded: did not lead to detectable immune responses |
